Laboratory results from patent publication US9102648B1, “Bioavailable diacylhydrazine ligands for modulating the expression of exogenous genes via an ecdysone receptor complex” (Intrexon Corporation, priority 2003, dated 2015).
In brackets after ≈: the same amount, converted by molar mass. Read-outs that look alike come from different tables or passages of the source.

Experiments:
[1] = tested on: mutated ecdysone receptor-based gene switch; assay: In vivo SEAP induction, ligand by IP injection; design: species or system C57BL/6 mouse; details: for Secreted Alkaline Phosphatase (percentage of GS ™-E ligand induction) Day 2 / Secreted Alkaline Phosphatase (percentage of GS ™-E ligand induction) Day 3 / Secreted Alkaline Phosphatase (percentage of GS ™-E ligand induction) Day 11: mouse serum; for Secreted Alkaline Phosphatase (percentage of GS ™-E ligand induction) Day 2: IP 2.6 μmol ligand 3 days after electroporation, day 2 after ligand; for Secreted Alkaline Phosphatase (percentage of GS ™-E ligand induction) Day 3 / Secreted Alkaline Phosphatase (percentage of GS ™-E ligand induction) Day 11: IP 2.6 μmol ligand; for Secreted Alkaline Phosphatase (percentage of GS ™-E ligand induction) Day 3: day 3 after ligand; for Secreted Alkaline Phosphatase (percentage of GS ™-E ligand induction) Day 11: day 11 after ligand
In short: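 Gene switch plasmids (receptor under CMV promoter) electroporated into quadriceps of C57BL/6 mice; 3 days later ligand given IP at 2.6 μmol or 26 nmol in 50 μL DMSO per mouse. Serum SEAP measured by chemiluminescence 2-11 days after dosing, averaged over four animals, expressed as % of GS™-E ligand induction.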

[2] = biological target: GAL4 DBD (1-147)-CfEcR(DEF)/VP16AD-βRXREF-LmUSPEF (Choristoneura fumiferana, UniProt O77240); assay: cell-based; details: for 27-63 assay Rel Max FI: maximum fold induction at any concentration relative to that of GS-E ligand, CHO 27-63 cells; for fold induction at 3.3 µM: read-out: Fold Induction, 27-63 Assay, 3.3 uM; for fold induction at 33 µM: read-out: Fold Induction, 27-63 Assay, 33 uM
[3] = Determination of LC Log P (experimental); assay type: physicochemical
Protocol: Liquid chromatography retention times (RT) are measured for each substance using the conditions described below. A linear equation is derived relating RT to log P is developed from the data for the log P standards. The log P for the test compound is calculated from the log P/retention time equation.

[4] = Determination of water solubility (de-ionized water, LC/MS); details: kinetic from dmso stock
Protocol: Aqueous solutions are prepared as follows in triplicate: 50 μl of a 10,000 ppm solution (2,000 μg of solid dissolved in 200 μl of methanol) of the substrate in methanol or DMSO is added to 1 mL of de-ionized water in a 2 dram or smaller vial with magnetic stirring. Stirring is continued overnight at ambient temperature. The slurry is taken up into a syringe with a luer tip. The contents are passed through a new 13 mm 0.2 ρM Acrodisc filter (tuffryn or glass fiber) into an autosampler bottle. For preparation of calibration standard solutions: dilutions of the 10,000 ppm solution were prepared at 10, 5, 1, 0.5, and 0.2 ppm. […] For more soluble materials, dilution of the samples into this range is preferable to increasing the calibration range because the non-linearity of the response results in less useful calibration curves. However a shift in the range of calibration standards is required for very insoluble compounds.
Chromatography of the samples was then preformed. For most diacylhydrazines the following conditions were adequate for the measurement. Other columns and gradients may be substituted as appropriate.
Analysis of the test samples is conducted as follows: Each solubility replicate is analyzed in duplicate. […] Standard curves are obtained from duplicate injections of the standards. The concentration of the substrate is determined by calculation from the equation relating concentration and response.

[5] = from LC retention time against log P standards, read-out: LC LogP (exp)

Row | Compound | Secreted Alkaline Phosphatase (percentage of GS ™-E ligand induction) Day 2 [1] | Secreted Alkaline Phosphatase (percentage of GS ™-E ligand induction) Day 3 [1] | Secreted Alkaline Phosphatase (percentage of GS ™-E ligand induction) Day 11 [1] | EC50 [2] | 27-63 assay Rel Max FI [2] | fold induction at 3.3 µM [2] | fold induction at 33 µM [2] | chromatographic logP [3, 5] | solubility kinetic [4] | Secreted Alkaline Phosphatase Day 2 ([1]; IP 130 nmol ligand) | Secreted Alkaline Phosphatase Day 3 ([1]; IP 130 nmol ligand) | Secreted Alkaline Phosphatase Day 7 ([1]; IP 130 nmol ligand) | logP ([3]; diacylhydrazine log P standards (log P known experimentally)) | chromatographic logP [3] | Secreted Alkaline Phosphatase Day 2 ([1]; IP 26 nmol ligand) | Secreted Alkaline Phosphatase Day 3 ([1]; IP 26 nmol ligand) | Secreted Alkaline Phosphatase Day 7 ([1]; IP 26 nmol ligand)
1 | COc1cccc(C(=O)NN(C(=O)c2cc(Cl)c(F)c(Cl)c2)C(C)(C)C)c1C [RG-101382, N-(3-methoxy-2-methylbenzoyl)-N′-(3,5-dichloro-4-fluorobenzoyl)-N′-tert-butylhydrazine] | 92 percentage of GS ™-E ligand induction | 81 percentage of GS ™-E ligand induction | 890 percentage of GS ™-E ligand induction | 0.306 µM | 1.188 | 2700 | 2570 | 4.4 | – | – | – | – | – | – | – | – | –
2 | CCc1c(C(=O)NN(C(=O)c2cc(C)cc(Cl)c2)C(C)(C)C)ccc2c1OCCO2 [RG-101494, N-(5-ethyl-1,4-benzodioxan-6-carbonyl)-N′-(tert-butyl)-N′-(3-chloro-5-methylbenzoyl)hydrazine] | 136 percentage of GS ™-E ligand induction | 138 percentage of GS ™-E ligand induction | – | 0.036 µM | 0.916 | 717 | 294 | 4.3 | – | – | – | – | – | – | – | – | –
3 | CCc1ccc(C(=O)NN(C(=O)c2cc(C)cc(C)c2)C(C)(C)C)c(F)c1 [RG-101523, 3,5-Dimethyl-benzoic acid N-tert-butyl-N′-(4-ethyl-2-fluoro-benzoyl)-hydrazide] | 85 percentage of GS ™-E ligand induction | 79 percentage of GS ™-E ligand induction | 1,116 percentage of GS ™-E ligand induction | 0.165 µM | 0.943 | 2430 | 2740 | 4.35 | 13.4 µM (≈ 4.96 µg/mL) | – | – | – | – | – | – | – | –
4 | CCc1c(OC)cccc1C(=O)NN(C(=O)c1cc(C)cc(C)c1)C(C)(C)C [RG-102240, N-(3-methoxy-2-ethylbenzoyl)-N′-(3,5-dimethylbenzoyl)-N′-tert-butylhydrazine] | 100 percentage of GS ™-E ligand induction | 100 percentage of GS ™-E ligand induction | 100 percentage of GS ™-E ligand induction | – | 1 | – | – | 4.2 | 9.8 µM (≈ 3.75 µg/mL) | 652 ng/ml mouse sera | 1,780 ng/ml mouse sera | 139 ng/ml mouse sera | 4.2 | – | – | – | –
5 | Cc1cc(C)cc(C(=O)N(NC(=O)c2ccc3c(c2C)OCCO3)C(C)(C)C)c1 [RG-102317, N-(5-methyl-1,4-benzodioxan-6-carbonyl)-N′-(tert-butyl)-N′-(3,5-dimethylbenzoyl)hydrazine] | 112 percentage of GS ™-E ligand induction | 116 percentage of GS ™-E ligand induction | 61 percentage of GS ™-E ligand induction | 0.102 µM | 0.948 | 2550 | 2500 | – | – | – | – | – | – | 3.6 | – | – | –
6 | CCC(N(NC(=O)c1cccc(C)c1C)C(=O)c1cc(C)cc(C)c1)C(C)(C)C (stereo not drawn) [RG-103309, 3,5-dimethyl-benzoic acid N′-(2,3-dimethyl-benzoyl)-N-(1-ethyl-2,2-dimethyl-propyl)-hydrazide] | 251 percentage of GS ™-E ligand induction | 298 percentage of GS ™-E ligand induction | – | 3.02 µM | 0.975 | 2540 | 1200 | – | 2.9 µM (≈ 1.14 µg/mL) | – | – | – | – | – | 3,428 ng/ml mouse sera | 2,800 ng/ml mouse sera | 143 ng/ml mouse sera
7 | COc1cc(C(=O)N(NC(=O)c2ccc3c(c2C)OCCO3)C(C)(C)C)cc(OC)c1O [RG-115009, 4-Hydroxy-3,5-dimethoxy-benzoic acid N-tert-butyl-N′-(5-methyl-2,3-dihydro-benzo[1,4]dioxine-6-carbonyl)-hydrazide] | 4 percentage of GS ™-E ligand induction | 3 percentage of GS ™-E ligand induction | – | – | – | – | – | 1.9 | 30.4 µM (≈ 13.5 µg/mL) | – | – | – | – | – | – | – | –
8 | COc1cc(C(=O)N(NC(=O)c2ccc3c(c2C)OCCO3)C(C)(C)C#N)cc(OC)c1C [RG-115092, N-(5-methyl-1,4-benzodioxan-6-carbonyl)-N′-(2-cyano-2-propyl)-N′-(3,5-dimethoxy-4-methylbenzoyl)hydrazine] | 8 percentage of GS ™-E ligand induction | 2 percentage of GS ™-E ligand induction | – | 0.213 µM | 1.092 | 2870 | 3110 | 3.5 | – | – | – | – | – | – | – | – | –
9 | COc1ccc(C(=O)N(NC(=O)c2ccc3c(c2C)OCCO3)C(C)(C)C)c(OC)n1 [RG-115517, 2,6-dimethoxy-nicotinic acid N-tert-butyl-N′-(5-methyl-2,3-dihydro-benzo[1,4]dioxine-6-carbonyl)-hydrazide] | 4 percentage of GS ™-E ligand induction | 3 percentage of GS ™-E ligand induction | – | – | – | – | – | 3.15 | 36.7 µM (≈ 15.8 µg/mL) | – | – | – | – | – | – | – | –
10 | Cc1c(C(=O)NN(C(=O)c2cc(F)c(F)c(F)c2)C(C)(C)C)ccc2c1CCCO2 [RG-115575, 3,4,5-Trifluoro-benzoic acid N-tert-butyl-N′-(5-methyl-chroman-6-carbonyl)-hydrazide] | 74 percentage of GS ™-E ligand induction | 78 percentage of GS ™-E ligand induction | 69 percentage of GS ™-E ligand induction | – | – | – | – | 4.1 | 21.6 µM (≈ 9.08 µg/mL) | – | – | – | – | – | – | – | –
11 | COc1cc(C(=O)N(NC(=O)c2ccc3c(c2C)OCCO3)C(C)(C)C)cc(OC)c1C [RG-115637, 5-Methyl-2,3-dihydro-benzo[1,4]dioxine-6-carboxylic acid N′-tert-butyl-N′-(3,5-dimethoxy-4-methyl-benzoyl)-hydrazide] | 12 percentage of GS ™-E ligand induction | 7 percentage of GS ™-E ligand induction | 0 percentage of GS ™-E ligand induction | 0.117 µM | 1.305 | 4160 | 2740 | 3.54 | 13.7 µM (≈ 6.06 µg/mL) | – | – | – | – | – | – | – | –
